Data published in ChEMBL document CHEMBL3046645, “Novel 1,3-diarylpyrazole acrylamides: synthesis, antiplatelet activity screening, and in silico evaluation studies” (Med Chem Res, 2013).
Activity calls are given as the source filed them. The rule behind the calls is not given here.

Columns and labels:
Type in all cases: functional
[1] = system: Platelet; test: Antiplatelet activity in human platelet-rich plasma assessed as inhibition of arachidonic acid-induced aggregation at 100 uM incubated for 5 mins prior to arachidonic acid-challenge measured for 3 mins by turbidrometric analysis relative to control
[2] = (§1) Antiplatelet activity in human platelet-rich plasma assessed as inhibition of collagen-induced aggregation at 100 uM incubated for 5 mins prior to collagen-challenge measured for 3 mins by turbidrometric analysis relative to control
[3] = Antiplatelet activity in human platelet-rich plasma assessed as inhibition of arachidonic acid-induced aggregation incubated for 5 mins prior to arachidonic acid-challenge measured for 3 mins by turbidrometric analysis
[4] = system: Platelet; test: as §1

Row | IC50 [3] | Compound | inhibition [1] | inhibition at 100 µM [2] | inhibition [4]
1 | – | O=C(/C=C/c1cn(-c2ccccc2)nc1-c1ccncc1)N1CCN(c2ccc(C(F)(F)F)cc2)CC1 | inactive | 25% | –
2 | 7.7 µM | CC(=O)Oc1ccccc1C(=O)O [ASPIRIN] | – | – | –
3 | – | O=C(/C=C/c1cn(-c2ccccc2)nc1-c1ccncc1)N1CCCCC1 | Active | – | –
4 | – | O=C(/C=C/c1cn(-c2ccccc2)nc1-c1ccncc1)N1CCN(c2cccc(Cl)c2)CC1 | inactive | – | inactive
5 | – | COc1ccccc1N1CCN(C(=O)/C=C/c2cn(-c3ccccc3)nc2-c2ccncc2)CC1 | inactive | – | inactive
6 | – | COc1ccc(N2CCN(C(=O)/C=C/c3cn(-c4ccccc4)nc3-c3ccncc3)CC2)c(OC)c1OC | inactive | – | inactive
7 | – | O=C(/C=C/c1cn(-c2ccccc2)nc1-c1ccncc1)N1CCN(c2ncccn2)CC1 | inactive | 73.1% | –
8 | – | O=C(/C=C/c1cn(-c2ccccc2)nc1-c1ccncc1)N1CCN(c2ccncc2)CC1 | inactive | 82.5% | –
9 | – | O=C(/C=C/c1cn(-c2ccccc2)nc1-c1ccncc1)N1CCN(C(=O)c2ccco2)CC1 | inactive | 50% | –
10 | 20.2 µM | O=C(/C=C/c1cn(-c2ccccc2)nc1-c1ccncc1)NCc1ccccc1 | – | 54.9% | –
11 | – | CCOc1ccccc1N1CCN(C(=O)/C=C/c2cn(-c3ccccc3)nc2-c2ccncc2)CC1 | inactive | 42% | –
12 | – | Cc1ccc(N2CCN(C(=O)/C=C/c3cn(-c4ccccc4)nc3-c3ccncc3)CC2)cc1 | inactive | – | inactive
13 | – | O=C(O)/C=C/c1cn(-c2ccccc2)nc1-c1ccncc1 | inactive | – | inactive
14 | 30.3 µM | O=C(/C=C/c1cn(-c2ccccc2)nc1-c1ccncc1)NC1CCCCC1 | – | 71.8% | –
15 | – | O=C(/C=C/c1cn(-c2ccccc2)nc1-c1ccncc1)N1CCOCC1 | Active | – | –
16 | – | O=C(/C=C/c1cn(-c2ccccc2)nc1-c1ccncc1)N1CCN(c2ccccc2)CC1 | inactive | – | inactive
17 | – | O=C(/C=C/c1cn(-c2ccccc2)nc1-c1ccncc1)N1CCN(C(=O)C2CCCO2)CC1 (stereo not drawn) | inactive | 68.9% | –
18 | – | Cc1cccc(N2CCN(C(=O)/C=C/c3cn(-c4ccccc4)nc3-c3ccncc3)CC2)c1C | inactive | – | inactive
19 | – | COc1ccc(CNC(=O)/C=C/c2cn(-c3ccccc3)nc2-c2ccncc2)cc1 | inactive | – | inactive
20 | – | O=C(/C=C/c1cn(-c2ccccc2)nc1-c1ccncc1)NC1CC1 | inactive | – | inactive
21 | – | O=C(/C=C/c1cn(-c2ccccc2)nc1-c1ccncc1)N1CCC(Cc2ccccc2)CC1 | inactive | – | inactive
22 | – | O=C(/C=C/c1cn(-c2ccccc2)nc1-c1ccncc1)N1CCN(c2ccc(Cl)cc2)CC1 | inactive | – | inactive
23 | – | O=C(/C=C/c1cn(-c2ccccc2)nc1-c1ccncc1)N1CCN(CCOCCO)CC1 | inactive | – | inactive
